According to patent US20160083391A1, “TRICYCLIC PIPERAZINE DERIVATIVE” (Sunovion Pharmaceuticals Inc., priority 2014, published 2016):
pIC50: −log10 of the molar value.

system: PDE1; assay: In vitro HTRF PDE1 inhibition assay; type: biochemical; settings: HTRF cGMP assay, 100 nM cyclic GMP, PDE (1A3, 1B or 1C) with calmodulin, 45 minutes at 37° C.; isoform of the tabulated values not stated
Procedure, shortened: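 HTRF cGMP competition assay: PDE1A3, 1B or 1C with calmodulin acting on 100 nM cGMP in 1% DMSO, pH 7.4 buffer with Ca2+ and Mg2+, 45 min at 37 °C. Remaining cGMP detected with d2-cGMP and anti-cGMP cryptate (665/615 nm); IC50 reported as banded categories.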

Compound	pIC50
O=c1c2nnn(C3CCCC3)c2nc2n1CCN(Cc1ccc(Cl)cc1)C2 [Compound I-128, 6-(4-Chlorobenzyl)-3-cyclopentyl-5,6,7,8-tetrahydropyrazino[1,2-a][1,2,3]triazolo[4,5-d]pyrimidin-10(3H)-one]	< 5.00
CC(C)n1ncc2c(=O)n3c(nc21)CN(c1ccc(F)cc1)CC3 [Compound I-142, 8-(4-Fluorophenyl)-1-isopropyl-6,7,8,9-tetrahydropyrazino[1,2-a]pyrazolo[3,4-d]pyrimidin-4(1H)-one]	> 6.00
O=c1c2cnn(C3CCCC3)c2nc2n1CCN(c1ccccc1)C2 [Compound I-95, 1-Cyclopentyl-8-phenyl-6,7,8,9-tetrahydropyrazino[1,2-a]pyrazolo[3,4-d]pyrimidin-4(1H)-one]	> 6.00
CC(C)c1nn(C)c2c(=O)n3c(nc12)C(C)N(C)CC3 (racemic) [Compound I-41, (±)-3-Isopropyl-1,5,6-trimethyl-5,6,7,8-tetrahydropyrazino[1,2-a]pyrazolo[4,3-d]pyrimidin-10(1H)-one]	< 5.00
O=c1c2cnc(C3CCCC3)n2nc2n1CCN(Cc1ccc(Cl)cc1)C2 [Compound I-134, 7-(4-Chlorobenzyl)-3-cyclopentyl-8,9-dihydro-6H-imdazo[5,1-f]pyrazino[2,1-c][1,2,4]triazin-11(7H)-one]	> 6.00
CC(C)n1ncc2c(=O)n3c(nc21)CN(Cc1ccc(Cl)cc1)CC3 [Compound I-73, 8-(4-Chlorobenzyl)-1-isopropyl-6,7,8,9-tetrahydropyrazino[1,2-a]pyrazolo[3,4-d]pyrimidin-4(1H)-one]	> 6.00
CC1c2nc3c(cnn3C(C)C)c(=O)n2CCN1C (racemic) [Compound I-21, (±)-1-Isopropyl-8,9-dimethyl-6,7,8,9-tetrahydropyrazino[1,2-a]pyrazolo[3,4-d]pyrimidin-4(1H)-one]	< 5.00
CC(C)c1n[nH]c2c(=O)n3c(nc12)C(Cc1ccccc1)NCC3 (racemic) [Compound I-12, (±)-5-Benzyl-3-isopropyl-5,6,7,8-tetrahydropyrazino[1,2-a]pyrazolo[4,3-d]pyrimidin-10(1H)-one]	< 5.00
O=c1c2cnn(-c3ccccc3)c2nc2n1CCN(Cc1ccccc1)C2Cc1ccccc1 (racemic) [Compound I-37, (±)-8,9-Dibenzyl-1-phenyl-6,7,8,9-tetrahydropyrazino[1,2-a]pyrazolo[3,4-d]pyrimidin-4(1H)-one]	< 5.00
O=c1c2cn[nH]c2nc2n1CCN(Cc1ccccc1)C2 [Compound I-27, 8-Benzyl-6,7,8,9-tetrahydropyrazino[1,2-a]pyrazolo[3,4-d]pyrimidin-4(1H)-one]	< 5.00
CC(C)Cn1ncc2c(=O)n3c(nc21)CN(c1ccc(Cl)cc1)CC3 [Compound I-92, 8-(4-Chlorophenyl)-1-isobutyl-6,7,8,9-tetrahydropyrazino[1,2-a]pyrazolo[3,4-d]pyrimidin-4(1H)-one]	> 6.00
COc1ccc(CN2CCn3c(nc4c(nnn4C4CCCC4)c3=O)C2)cc1 [Compound I-127, 3-Cyclopentyl-6-(4-methoxybenzyl)-5,6,7,8-tetrahydropyrazino[1,2-a][1,2,3]triazolo[4,5-d]pyrimidin-10(3H)-one]	< 5.00
O=c1c2c(Nc3ccccc3)n[nH]c2nc2n1CCN(Cc1ccccc1)C2 [Compound I-50]	< 5.00
COc1ccc(CN2CCn3c(nn4c(C5CCCC5)ncc4c3=O)C2)cc1 [Compound I-133, 3-Cyclopentyl-7-(4-methoxybenzyl)-8,9-dihydro-6H-imidazo[5,1-f]pyrazino[2,1-c][1,2,4]triazin-11(7H)-one]	> 6.00
CC(C)n1ncc2c(=O)n3c(nc21)CNCC3 [Compound I-1, 1-Isopropyl-6,7,8,9-tetrahydropyrazino[1,2-a]pyrazolo[3,4-d]pyrimidin-4(1H)-one]	< 5.00
CN1Cc2nc3c(cnn3C3CCCC3)c(=O)n2C(c2ccccc2)C1 (racemic) [Compound I-102, (±)-1-cyclopentyl-8-methyl-6-phenyl-6,7,8,9-tetrahydropyrazino[1,2-a]pyrazolo[3,4-d]pyrimidin-4(1H)-one]	< 5.00

Next, values leading:

pIC50	Compound
5.00 to 6.00	Cc1ccc(CN2CCn3c(nc4c(cnn4C(C)C)c3=O)C2)cn1 [Compound I-186, 1-Isopropyl-8-((6-methylpyridin-3-yl)methyl)-6,7,8,9-tetrahydropyrazino[1,2-a]pyrazolo[3,4-d]pyrimidin-4(1H)-one]
5.00 to 6.00	COCCn1ncc2c(=O)n3c(nc21)CN(Cc1ccc(OC)cc1)CC3 [Compound I-158, 8-(4-Methoxybenzyl)-1-(2-methoxyethyl)-6,7,8,9-tetrahydropyrazino[1,2-a]pyrazolo[3,4-d]pyrimidin-4(1H)-one]
5.00 to 6.00	Cc1ncc(CN2CCn3c(nn4c(C5CCCC5)ncc4c3=O)C2)cn1 [Compound I-197, 3-Cyclopentyl-7-((2-methylpyrimidin-5-yl)methyl)-8,9-dihydro-6H-imidazo[5,1-f]pyrazino[2,1-c][1,2,4]triazin-11(7H)-one]
> 6.00	CC(C)c1ncc2c(=O)n3c(nn12)CN(c1ccc(C#N)cc1)CC3 [Compound I-238, 4-(3-Isopropyl-11-oxo-8,9-dihydro-6H-imidazo[5,1-f]pyrazino[2,1-c][1,2,4]triazin-7(11H)-yl)benzonitrile]
> 6.00	O=c1c2cnn(C3CCOCC3)c2nc2n1CCN(Cc1ccc(Cl)cc1)C2 [Compound I-211, 8-(4-Chlorobenzyl)-1-(tetrahydro-2H-pyran-4-yl)-6,7,8,9-tetrahydropyrazino[1,2-a]pyrazolo[3,4-d]pyrimidin-4(1H)-one]
> 6.00	CC(C)n1ncc2c(=O)n3c(nc21)CN(c1ccc(C(F)(F)F)cc1)CC3 [Compound I-239, 1-Isopropyl-8-(4-(trifluoromethyl)phenyl)-6,7,8,9-tetrahydropyrazino[1,2-a]pyrazolo[3,4-d]pyrimidin-4(1H)-one]
< 5.00	COc1ccc(CN2CCc3nc4c(cnn4C(C)C)c(=O)n3CC2)cc1 [Compound I-157, 1-Isopropyl-8-(4-methoxybenzyl)-7,8,9,10-tetrahydro-1H-pyrazolo[3′,4′:4,5]pyrimido[1,2-d][1,4]diazepin-4(6H)-one]
5.00 to 6.00	CC(C)n1ncc2c(=O)n3c(nc21)CN(Cc1cnccn1)CC3 [Compound I-202, 1-Isopropyl-8-(pyrazin-2-ylmethyl)-6,7,8,9-tetrahydropyrazino[1,2-a]pyrazolo[3,4-d]pyrimidin-4(1H)-one]
> 6.00	O=c1c2cnc(C3CCOC3)n2nc2n1CCN(Cc1ccccc1)C2 (racemic) [Compound I-231, (±)-7-Benzyl-3-(tetrahydrofuran-3-yl)-8,9-dihydro-6H-imidazo[5,1-f]pyrazino[2,1-c][1,2,4]triazin-11(7H)-one]
5.00 to 6.00	O=c1c2cnn(C3CCCC3)c2nc2n1CCN(CCc1ccc(Cl)cc1)C2 [Compound I-243, 8-(4-Chlorophenethyl)-1-cyclopentyl-6,7,8,9-tetrahydropyrazino[1,2-a]pyrazolo[3,4-d]pyrimidin-4(1H)-one]
> 6.00	CC1Cn2c(nc3c(cnn3C(C)C)c2=O)CN1Cc1cccc(F)c1 (racemic) [Compound I-149, (±)-8-(3-Fluorobenzyl)-1-isopropyl-7-methyl-6,7,8,9-tetrahydropyrazino[1,2-a]pyrazolo[3,4-d]pyrimidin-4(1H)-one]
5.00 to 6.00	CCCn1ncc2c(=O)n3c(nc21)CN(Cc1ccc(OC)cc1)CC3 [Compound I-164, 8-(4-Methoxybenzyl)-1-propyl-6,7,8,9-tetrahydropyrazino[1,2-a]pyrazolo[3,4-d]pyrimidin-4(1H)-one]
> 6.00	O=c1c2cnn(C3CCOC3)c2nc2n1CCN(c1ccc(Cl)cc1)C2 (racemic) [Compound I-217, (±)-8-(4-Chlorophenyl)-1-(tetrahydrofuran-3-yl)-6,7,8,9-tetrahydropyrazino[1,2-a]pyrazolo[3,4-d]pyrimidin-4(1H)-one]
< 5.00	Cc1ncc(CN2CCn3c(nc4c(cnn4C(C)C)c3=O)C2)cn1 [Compound I-194, 1-Isopropyl-8-((2-methylpyrimidin-5-yl)methyl)-6,7,8,9-tetrahydropyrazino[1,2-a]pyrazolo[3,4-d]pyrimidin-4(1H)-one]
> 6.00	Cc1cnc(CN2CCn3c(nn4c(C5CCCC5)ncc4c3=O)C2)cn1 [Compound I-209, 3-Cyclopentyl-7-((5-methylpyrazin-2-yl)methyl)-8,9-dihydro-6H-imidazo[5,1-f]pyrazino[2,1-c][1,2,4]triazin-11(7H)-one]
5.00 to 6.00	O=c1c2cnn(C3CCOC3)c2nc2n1CCN(c1ccccc1)C2 (racemic) [Compound I-216, (±)-8-Phenyl-1-(tetrahydrofuran-3-yl)-6,7,8,9-tetrahydropyrazino[1,2-a]pyrazolo[3,4-d]pyrimidin-4(1H)-one]
> 6.00	COc1cncc(N2CCn3c(nc4c(cnn4C(C)C)c3=O)C2)c1 [Compound I-144, 1-Isopropyl-8-(5-methoxypyridin-3-yl)-6,7,8,9-tetrahydropyrazino[1,2-a]pyrazolo[3,4-d]pyrimidin-4(1H)-one]
> 6.00	COc1ccc(CN2CCn3c(nn4c(C5CCOCC5)ncc4c3=O)C2)cc1 [Compound I-234, 7-(4-Methoxybenzyl)-3-(tetrahydro-2H-pyran-4-yl)-8,9-dihydro-6H-imidazo[5,1-f]pyrazino[2,1-c][1,2,4]triazin-11(7H)-one]
5.00 to 6.00	Cc1cnc(CN2CCn3c(nc4c(cnn4C(C)C)c3=O)C2)cn1 [Compound I-206, 1-Isopropyl-8-((5-methylpyrazin-2-yl)methyl)-6,7,8,9-tetrahydropyrazino[1,2-a]pyrazolo[3,4-d]pyrimidin-4(1H)-one]
> 6.00	O=c1c2cnc(C3CCOCC3)n2nc2n1CCN(Cc1ccc(Cl)cc1)C2 [Compound I-235, 7-(4-Chlorobenzyl)-3-(tetrahydro-2H-pyran-4-yl)-8,9-dihydro-6H-imidazo[5,1-f]pyrazino[2,1-c][1,2,4]triazin-11(7H)-one]
